Laboratory results published in ChEMBL document CHEMBL4229379, “Synthesis and structure-activity relationship of novel bisindole amidines active against MDR Gram-positive and Gram-negative bacteria” (Eur J Med Chem, 2018).

Legend:
[1] = tested on: Staphylococcus epidermidis; assay: Antibacterial activity against methicillin-sensitive Staphylococcus epidermidis ATCC 12228 after 18 hrs by CLSI broth microdilution method; type: functional; conditions: ATCC 12228, 18 h
[2] = tested on: Staphylococcus epidermidis; assay: Antibacterial activity against methicillin-resistant Staphylococcus epidermidis 12-8 after 18 hrs by CLSI broth microdilution method; type: functional; conditions: 12-8, 18 h
Staphylococcus aureus [3] = assay: Antibacterial activity against methicillin-sensitive Staphylococcus aureus ATCC 29213 after 18 hrs by CLSI broth microdilution method; type: functional; conditions: ATCC 29213, 18 h
Staphylococcus aureus [4] = assay: Antibacterial activity against methicillin-resistant Staphylococcus aureus 12-33 after 18 hrs by CLSI broth microdilution method; type: functional; conditions: 12-33, 18 h
Enterococcus faecalis [5] = assay: Antibacterial activity against vancomycin-sensitive Enterococcus faecalis ATCC 29212 after 18 hrs by CLSI broth microdilution method; type: functional; conditions: ATCC 29212, 18 h
Enterococcus faecalis [6] = assay: Antibacterial activity against vancomycin-resistant Enterococcus faecalis 09-9 after 18 hrs by CLSI broth microdilution method; type: functional; conditions: 09-9, 18 h
Enterococcus faecium [7] = assay: Antibacterial activity against vancomycin-resistant Enterococcus faecium ATCC 700221 after 18 hrs by CLSI broth microdilution method; type: functional; conditions: ATCC 700221, 18 h
Enterococcus faecium [8] = assay: Antibacterial activity against vancomycin-sensitive Enterococcus faecium 12-3 after 18 hrs by CLSI broth microdilution method; type: functional; conditions: 12-3, 18 h
Escherichia coli [9] = assay: Antibacterial activity against extended-spectrum beta-lactamase deficient Escherichia coli ATCC 25922 after 18 hrs by CLSI broth microdilution method; type: functional; conditions: ATCC 25922, 18 h
Escherichia coli [10] = assay: Antibacterial activity against extended-spectrum beta-lactamase harboring Escherichia coli 12-15 after 18 hrs by CLSI broth microdilution method; type: functional; conditions: 12-15, 18 h
Klebsiella pneumoniae [11] = assay: Antibacterial activity against extended-spectrum beta-lactamase harboring Klebsiella pneumoniae ATCC 700603 after 18 hrs by CLSI broth microdilution method; type: functional; conditions: Klebsiella pneumoniae, 700603, 18 h
Klebsiella pneumoniae [12] = assay: Antibacterial activity against new delhi metallo-beta-lactamase-1 harboring Klebsiella pneumoniae ATCC BAA-2146 after 18 hrs by CLSI broth microdilution method; type: functional; conditions: ATCC BAA-2146, 18 h
Klebsiella pneumoniae [13] = assay: Antibacterial activity against extended-spectrum beta-lactamase harboring Klebsiella pneumoniae 12-8 after 18 hrs by CLSI broth microdilution method; type: functional; conditions: 12-8, 18 h
Pseudomonas aeruginosa [14] = assay: Antibacterial activity against Pseudomonas aeruginosa ATCC 27853 after 18 hrs by CLSI broth microdilution method; type: functional; conditions: ATCC 27853, 18 h
[15] = tested on: Acinetobacter calcoaceticus; assay: Antibacterial activity against Acinetobacter calcoaceticus ATCC 19606 after 18 hrs by CLSI broth microdilution method; type: functional; conditions: ATCC 19606, 18 h
Enterobacter cloacae = assay: Antibacterial activity against Enterobacter cloacae ATCC 43560 after 18 hrs by CLSI broth microdilution method; type: functional; conditions: ATCC 43560, 18 h
Proteus mirabilis = assay: Antibacterial activity against Proteus mirabilis 12-6 after 18 hrs by CLSI broth microdilution method; type: functional; conditions: 12-6, 18 h
[16] = Cytotoxicity against HEK293T cells assessed as reduction in cell viability after 48 hrs by MTS assay; type: cell-based, HEK-293T; conditions: human
[17] = tested on: Staphylococcus epidermidis; assay: Antibacterial activity against methicillin-sensitive Staphylococcus epidermidis 12-6 after 18 hrs by CLSI broth microdilution method; type: functional; conditions: 12-6, 18 h
Staphylococcus aureus [18] = assay: Antibacterial activity against methicillin-resistant Staphylococcus aureus ATCC 33591 after 18 hrs by CLSI broth microdilution method; type: functional; conditions: ATCC 33591, 18 h
Staphylococcus aureus [19] = assay: Antibacterial activity against methicillin-sensitive Staphylococcus aureus 15 after 18 hrs by CLSI broth microdilution method; type: functional; conditions: Staphylococcus aureus, 15, 18 h
Staphylococcus aureus [20] = assay: Antibacterial activity against methicillin-sensitive Staphylococcus aureus 12-28 after 18 hrs by CLSI broth microdilution method; type: functional; conditions: 12-28, 18 h
Enterococcus faecalis [21] = assay: Antibacterial activity against vancomycin-resistant Enterococcus faecalis ATCC 51299 after 18 hrs by CLSI broth microdilution method; type: functional; conditions: ATCC 51299, 18 h
Enterococcus faecalis [22] = assay: Antibacterial activity against vancomycin-sensitive Enterococcus faecalis 12-5 after 18 hrs by CLSI broth microdilution method; type: functional; conditions: 12-5, 18 h
Enterococcus faecium [23] = assay: Antibacterial activity against vancomycin-resistant Enterococcus faecium 12-1 after 18 hrs by CLSI broth microdilution method; type: functional; conditions: 12-1, 18 h
Escherichia coli [24] = assay: Antibacterial activity against extended-spectrum beta-lactamase deficient Escherichia coli 1515 after 18 hrs by CLSI broth microdilution method; type: functional; conditions: Escherichia coli, 1515, 18 h
Escherichia coli [25] = assay: Antibacterial activity against extended-spectrum beta-lactamase deficient Escherichia coli 12-14 after 18 hrs by CLSI broth microdilution method; type: functional; conditions: 12-14, 18 h
Klebsiella pneumoniae [26] = assay: Antibacterial activity against extended-spectrum beta-lactamase deficient Klebsiella pneumoniae 7 after 18 hrs by CLSI broth microdilution method; type: functional; conditions: Klebsiella pneumoniae, 7, 18 h
Klebsiella pneumoniae [27] = assay: Antibacterial activity against extended-spectrum beta-lactamase deficient Klebsiella pneumoniae 12-4 after 18 hrs by CLSI broth microdilution method; type: functional; conditions: 12-4, 18 h
Pseudomonas aeruginosa [28] = assay: Antibacterial activity against Pseudomonas aeruginosa PAO1 after 18 hrs by CLSI broth microdilution method; type: functional; conditions: PAO1, 18 h
Pseudomonas aeruginosa [29] = assay: Antibacterial activity against Pseudomonas aeruginosa 12-16 after 18 hrs by CLSI broth microdilution method; type: functional; conditions: 12-16, 18 h
Klebsiella aerogenes = assay: Antibacterial activity against Enterobacter aerogenes ATCC 13048 after 18 hrs by CLSI broth microdilution method; type: functional; conditions: ATCC 13048, 18 h
Serratia marcescens = assay: Antibacterial activity against Serratia marcescens ATCC 21074 after 18 hrs by CLSI broth microdilution method; type: functional; conditions: ATCC 21074, 18 h
Providencia rettgeri = assay: Antibacterial activity against Providencia rettgeri ATCC 31052 after 18 hrs by CLSI broth microdilution method; type: functional; conditions: ATCC 31052, 18 h
Proteus vulgaris = assay: Antibacterial activity against Proteus vulgaris ATCC 29905 after 18 hrs by CLSI broth microdilution method; type: functional; conditions: ATCC 29905, 18 h
[30] = tested on: Stenotrophomonas maltophilia; assay: Antibacterial activity against Stenotrophomonas maltophilia ATCC 13636 after 18 hrs by CLSI broth microdilution method; type: functional; conditions: ATCC 13636, 18 h
Citrobacter freundii = assay: Antibacterial activity against Citrobacter freundii ATCC 43864 after 18 hrs by CLSI broth microdilution method; type: functional; conditions: ATCC 43864, 18 h

CC(C)NC(=N)c1ccc2cc(-c3cncc(-c4cc5ccc(C(=N)NC(C)C)cc5[nH]4)c3)[nH]c2c1
2 µg/mL: MIC [17]
16 µg/mL: MIC (Staphylococcus aureus [18]) | MIC (Staphylococcus aureus [19]) | MIC (Staphylococcus aureus [20])
8 µg/mL: MIC [1] | MIC [2] | MIC (Staphylococcus aureus [3])
26.5 µg/mL: CC50 at 48 h [16]
32 µg/mL: MIC (Staphylococcus aureus [4])
> 64 µg/mL: MIC (Enterococcus faecalis [5]) | MIC (Enterococcus faecalis [6]) | MIC (Enterococcus faecium [7]) | MIC (Enterococcus faecium [8]) | MIC (Escherichia coli [9]) | MIC (Escherichia coli [10]) | MIC (Klebsiella pneumoniae [11]) | MIC (Klebsiella pneumoniae [12]) | MIC (Klebsiella pneumoniae [13]) | MIC (Pseudomonas aeruginosa [14]) | MIC [15] | MIC (Enterobacter cloacae) | MIC (Proteus mirabilis) | MIC (Enterococcus faecalis [21]) | MIC (Enterococcus faecalis [22]) | MIC (Enterococcus faecium [23]) | MIC (Escherichia coli [24]) | MIC (Escherichia coli [25]) | MIC (Klebsiella pneumoniae [26]) | MIC (Klebsiella pneumoniae [27]) | MIC (Pseudomonas aeruginosa [28]) | MIC (Pseudomonas aeruginosa [29]) | MIC (Klebsiella aerogenes) | MIC (Serratia marcescens) | MIC (Providencia rettgeri) | MIC (Proteus vulgaris) | MIC [30] | MIC (Citrobacter freundii)

N=C(c1ccc2cc(-c3ccc(-c4cc5ccc(C(=N)N6CC=CC6)cc5[nH]4)cc3)[nH]c2c1)N1CC=CC1
16 µg/mL: MIC (Enterococcus faecium [7]) | MIC (Enterococcus faecium [8]) | MIC (Klebsiella pneumoniae [13]) | MIC (Enterococcus faecium [23]) | MIC (Escherichia coli [24]) | MIC (Escherichia coli [25]) | MIC (Klebsiella pneumoniae [27]) | MIC (Providencia rettgeri)
1 µg/mL: MIC [1]
12.4 µg/mL: CC50 at 48 h [16]
32 µg/mL: MIC (Klebsiella pneumoniae [11]) | MIC [15] | MIC (Proteus vulgaris) | MIC [30]
2 µg/mL: MIC [17] | MIC (Staphylococcus aureus [18])
64 µg/mL: MIC (Proteus mirabilis)
4 µg/mL: MIC [2] | MIC (Staphylococcus aureus [3]) | MIC (Staphylococcus aureus [4]) | MIC (Staphylococcus aureus [19]) | MIC (Staphylococcus aureus [20])
8 µg/mL: MIC (Enterococcus faecalis [5]) | MIC (Enterococcus faecalis [6]) | MIC (Escherichia coli [9]) | MIC (Escherichia coli [10]) | MIC (Klebsiella pneumoniae [12]) | MIC (Enterobacter cloacae) | MIC (Enterococcus faecalis [21]) | MIC (Enterococcus faecalis [22]) | MIC (Klebsiella pneumoniae [26]) | MIC (Klebsiella aerogenes) | MIC (Citrobacter freundii)
> 128 µg/mL: MIC (Pseudomonas aeruginosa [14]) | MIC (Pseudomonas aeruginosa [28]) | MIC (Pseudomonas aeruginosa [29]) | MIC (Serratia marcescens)
